In patent publication US11685904B2 (priority 2019, dated 2023):
Entries after “also recorded” stand apart in the source; their conditions may differ.

Experiments:
[1] = test system: vaccinia virus expressing the TK.007 HSV-TK variant (IGV-035); set-up: species or system BALB/c mice; details: mouse, in vivo
[2] = test system: vaccinia virus expressing the TK.007 HSV-TK variant (IGV-077); set-up: species or system mice; details: mouse, in vivo

In the case of `Nc1nc(O)c2ncn(COC(CO)CO)c2n1` [ganciclovir], the “average lesion size compared to the vehicle (no vaccinia virus) group” value [1] is reported as “comparable to the group treated with vehicle”, the “healing of topical lesions caused by vaccinia virus” value [1] is reported as “healed faster” and the “lesion size compared to the non-treated group” value [1] is reported as “significantly smaller”. The “virus shedding from the tail scarification site” value [1] was “reduced virus shedding”, the “virus replication in tumors (plaque assay)” value [2] was “significantly reduced; also recorded: completely inhibited” and the “virus-mediated GFP expression in tumors (immunohistochemistry)” value [2] was “Low levels; also recorded: no virus-mediated GFP expression was detected”.
